Results on two molecules are retold here after ChEMBL document CHEMBL2034976, “Relationship between structure and P-glycoprotein inhibitory activity of dimeric peptides related to the Dmt-Tic pharmacophore” (Bioorg Med Chem Lett, 2012).

The nature of assay [1]: Competitive inhibition of P-gp assessed as P-gp-associated ATPase activity at 10 uM by Pgp-GloTM Assay.
The test system of assay [2] is K652. The assay is described as follows: Inhibition of P-gp-mediated rhodamine 123 efflux in doxorubicin-resistant human […] cells at 100 uM treated for 1 hr measured after washout by FACS flow cytometry relative to verapamil. It counts as cell-based. For orientation: In flow cytometry, cells or beads pass a laser one at a time.
The nature of assay [3]: Noncompetitive inhibition of P-gp assessed as reduction in P-gp-associated ATPase activity by Pgp-GloTM Assay.

The source made the active and inactive calls. No cut-off for these calls is given here.

Consider `CN(C)[C@@H](CC(C)(C)C)C(=O)N1Cc2ccccc2C[C@H]1C(=O)NCCCC[C@H](NC(=O)[C@@H]1Cc2ccccc2CN1C(=O)[C@H](CC(C)(C)C)N(C)C)C(N)=O`, for which the inhibition result in assay [1] and in assay [3] was “Active” each time. Further, the fold change (FC) in assay [2] was determined as 2.

`CN(C)[C@@H](CC(C)(C)C)C(=O)N1Cc2ccccc2C[C@H]1C(=O)NCCCC[C@@H](NC(=O)[C@@H]1Cc2ccccc2CN1C(=O)[C@H](CC(C)(C)C)N(C)C)C(N)=O` returned a fold change (FC) in assay [2] of 2.
